Data taken from EP1541559A1, “5-SUBSTITUTED ISOQUINOLINE DERIVATIVE” (Asahi Kasei Pharma Corporation, priority 2002, dated 2004).
Where a name gives a salt, the structure may show the parent alone. Read-outs that look alike come from different tables or passages of the source.

How the values were obtained:
[1] = test system: myosin regulatory light chain; assay: Action on amount of phosphorylated myosin regulatory light chain in the cells (Test Example 1); assay type: cell-based, human; conditions: neutrophils of healthy volunteers, reaction with test compound at 25°C for 5 minutes, read-out: Inhibition of myosin regulatory light chain phosphorylation (IC50: µM)
Description: The neutrophils were washed with PBS(-) and resuspended in Hanks' Balanced Salt Solution (HBSS+, Gibco) to prepare a cell suspension (8 x 10^6/ml). The cell suspension was diluted to 5 x 10^6/ml, introduced into Eppendorf tubes in a volume of 0.4 ml each, then 0.1 ml each of solutions of a test compound at various concentrations were added to the suspension and allowed to react at 25°C for 5 minutes. After the reaction, 0.1 ml of trichloroacetic acid solution was added to each reaction, the reaction mixture was gently shaken and centrifuged at 12,000 rpm (4°C, 5 minutes), and the supernatant was removed. Subsequently, 3 μl of 1 M Tris solution was added to the residue, the mixture was further mixed with 50 μl of extraction buffer (8 M urea, 0.02% 2-mercaptoethanol, 0.002% bromophenol blue) and left stand at room temperature for 1 hour. Then, the reaction mixture was loaded on a spin column (0.45 μm, Millipore) to remove the insoluble solids and a sample buffer for SDS polyacrylamide gel electrophoresis (25 mM, Tris-HCl pH 6.8, 2.5% 2-mercaptoethanol, 2% sodium dodecylsulfate, 5% sucrose, 0.002% bromophenol blue as final concentrations) was added, and 10 μl of each sample was subjected to electrophoresis. […] J. Physiol., 274, […]-[…] (1998)), which specifically recognize the phosphorylated myosin regulatory light chain, and donkey anti-mouse IgG (Chemicon) conjugated with horseradish peroxidase (HRP-labeled). The band of the phosphorylated myosin regulatory light chain was detected on a film by using ECL Plus Kit (Amersham Pharmacia Biotech). This band was subjected to quantification using a densitometer. By using this value, the inhibitory ratio (%) for phosphorylation of the myosin regulatory light chain was calculated by using the following equation.

Neutrophils = assay: Neutrophil migration inhibitory action, Boyden Chamber, FMLP (Test Example 5); assay type: cell-based, human; conditions: FMLP (1 µM), migration at 37°C for 30 minutes, read-out: Neutrophil migration inhibition IC50
Description: Neutrophils were isolated from 50 to 100 ml of peripheral blood collected from healthy donors by the method described in Test Example 1 to obtain a cell suspension (8 x 10^6/ml). Subsequently, solutions of a test compound at various concentrations were introduced into wells of a 96-well plate in a volume of 125 µl per well, the cell suspension of an equivalent volume was added to it and the plate was preincubated at room temperature for 5 minutes. During the preincubation, FMLP (1 µM, Sigma) solution was added to the lower chamber to set Boyden Chamber, the preincubated cell suspension was added to the upper chamber in a volume of 200 µl per well, and the cells were allowed to migrate at 37°C under 5% carbon dioxide for 30 minutes. The filter after the migration was collected, and the non-migrated cells adhered to the surface that faced the upper chamber were carefully wiped off. Then, the migrated cells on the back surface were stained with DifQuick dye solution (International Reagents), washed with water and dried, and then absorbance was measured at 595 nm. The inhibition ratio against migration (%) of a test compound was calculated by using the following equation: Migration inhibition ratio (%) = (1 -Absorbance of the group with addition of test compound /Absorbance of the group without addition of test compound) x 100 [formula]

thoracic aorta = assay: Vasoconstriction inhibitory action on aorta rings constricted with phenylephrine (Test Example 2); parameters: species or system Rats (Wistar, 11-week old); conditions: for vasoconstriction inhibitory action: result in words, aorta constricted with phenylephrine (1 µM)
Excerpt: Rats (Wistar, 11-week old) were bleeded to death and laparotomized to take out the thoracic aorta.

Japanese white rabbit = assay: Intraocular pressure reducing action (Test Example 4); assay type: in vivo; conditions: result in words
Description: A Japanese white rabbit having a body weight of about 2 kg was placed in a positioner and naturalized for one week before the experiment. An ophthalmologic local […] (Benoxil) was administered to the left eye, and then intraocular pressure was measured by using a tonometer (Classic 30, Solan). The initial value of the intraocular pressure was measured, then 50 μl of a test compound (1% aqueous solution) was dropped to the left eye, and after 2 hours, the intraocular pressure was measured. The intraocular pressure reducing action of the test compounds is shown in Table 7 mentioned below as ratios (%) of reduction of intraocular pressure based on the initial value of the intraocular pressure.

[2] = Homo sapiens, Neutrophil, 0.5 h
[3] = Homo sapiens, Neutrophil, 5 min

IC50 (Neutrophils; [2]) [µM] | Molecule | IC50 [1, 3] [µM] | IC50 ([1]; hydrochloride) [µM] | also measured
– | 4-(4-Cyano-5-isoquinolyl)aminopiperidine hydrochloride [Example 143] | – | – | IC50 [1]: ≤ 40 µM
1 to 10 | NCCCN(CCCCc1ccccc1)S(=O)(=O)c1cccc2cnccc12 [Example 4, N-[(5-Isoquinolyl)sulfonyl]-N-(4-phenylbutyl)-1,3-propylenediamine hydrochloride] | 30 | – | –
1 to 10 | NCCCN(CCS(=O)(=O)c1ccccc1)S(=O)(=O)c1cccc2cnccc12 [Example 6, N-[(5-Isoquinolyl)sulfonyl]-N-[2-(phenylsulfonyl)ethyl]-1,3-propylenediamine hydrochloride] | 20 | – | –
1 to 10 | NCCN(CCS(=O)(=O)c1ccccc1)S(=O)(=O)c1cccc2c(N)nccc12 [Example 9, N-[(1-Amino-5-isoquinolyl)sulfonyl]-N-[2-(phenylsulfonyl)ethyl]ethylenediamine hydrochloride] | 15 | – | –
1 to 10 | Cl.NCCCN(CCS(=O)(=O)c1ccccc1)S(=O)(=O)c1cccc2c(O)nccc12 [Example 13, N-[(1-Hydroxy-5-isoquinolyl)sulfonyl]-N-[2-(phenylsulfonyl)ethyl]-1,3-propylenediamine hydrochloride] | 20 | – | vasoconstriction inhibitory action (thoracic aorta): significant vasoconstriction inhibitory action
1 to 10 | NCCCN(CCCc1ccccc1)S(=O)(=O)c1cccc2c(O)nccc12 [Example 14, N-[(1-Hydroxy-5-isoquinolyl)sulfonyl]-N-(3-phenylpropyl)-1,3-propylenediamine hydrochloride] | 20 to 40 | – | –
10 to 40 | NCCCNc1cccc2cnccc12 [Example 16, N-(5-Isoquinolyl)-1,3-propylenediamine hydrochloride] | 20 to 40 | – | –
10 to 40 | NCCCCNc1cccc2cnccc12 [Example 18, N-(5-Isoquinolyl)-1,4-butylenediamine hydrochloride] | 20 to 40 | – | –
10 to 40 | c1cc(NCC2CCNCC2)c2ccncc2c1 [Example 21, 4-(5-Isoquinolyl)aminomethylpiperidine hydrochloride] | ≤ 40 | ≤ 20 | –
– | c1cc(NCC2CCCNC2)c2ccncc2c1 (stereo not drawn) [Example 22, 3-(5-Isoquinolyl)aminomethylpiperidine hydrochloride] | ≤ 40 | – | –
1 to 10 | N[C@H]1CC[C@@H](Nc2cccc3cnccc23)CC1 [Example 23, Cis-N-(5-Isoquinolyl)-1,4-cyclohexanediamine hydrochloride] | 1 to 20 | – | –
1 to 10 | N[C@H]1CC[C@H](Nc2cccc3cnccc23)CC1 [Example 24, Trans-N-(5-isoquinolyl)-1,4-cyclohexanediamine hydrochloride] | 1 to 20 | – | –
10 to 40 | NC1CCCC(Nc2cccc3cnccc23)C1 (stereo not drawn) [Example 25, N-(5-Isoquinolyl)-1,3-cyclohexanediamine hydrochloride] | 20 to 40 | – | –
10 to 40 | NCc1cccc(CNc2cccc3cnccc23)c1 [Example 26, N-(5-Isoquinolyl)-1,3-xylylenediamine hydrochloride] | 20 to 40 | – | –
≤ 40 | c1cc(OC2CCNCC2)c2ccncc2c1 [Example 27, 4-[(5-Isoquinolyl)oxy]piperidine hydrochloride] | 1 to 20 | – | –
1 to 10 | NCCN(CCCc1ccccc1)S(=O)(=O)c1cccc2cnccc12 [Example 30, N-[(5-isoquinolyl)sulfonyl]-N-(3-phenylpropyl)ethylenediamine] | 20 to 40 | – | –
≤ 40 | Fc1cncc2cccc(NC3CCNCC3)c12 [Example 104, 4-(4-Fluoro-5-isoquinolyl)aminopiperidine hydrochloride] | ≤ 40 | ≤ 20 | –
– | CSc1cncc2cccc(NC3CCNCC3)c12.Cl [Example 105, 4-(4-Methylthio-5-isoquinolyl)aminopiperidine hydrochloride] | ≤ 40 | – | vasoconstriction inhibitory action (thoracic aorta): significant vasoconstriction inhibitory action
– | Cl.NC1CCC(Nc2cccc3cncc(Br)c23)CC1 (stereo not drawn) [Example 107, N-(4-Bromo-5-isoquinolyl)-1,4-cyclohexanediamine hydrochloride] | ≤ 40 | ≤ 20 | intraocular pressure reducing activity (Japanese white rabbit): significant intraocular pressure reducing activity
≤ 40 | C=Cc1cncc2cccc(NC3CCNCC3)c12.Cl [Example 112, 4-(4-Vinyl-5-isoquinolyl)aminopiperidine hydrochloride] | ≤ 40 | ≤ 20 | vasoconstriction inhibitory action (thoracic aorta): significant vasoconstriction inhibitory action
– | Cl.Oc1nccc2c(NC3CCNCC3)cccc12 [Example 115, 4-(1-Hydroxy-5-isoquinolyl)aminopiperidine hydrochloride] | – | – | intraocular pressure reducing activity (Japanese white rabbit): significant intraocular pressure reducing activity
– | NCCCN(CCCc1cccc(C(=O)O)c1)S(=O)(=O)c1cccc2cnccc12 [Example 128, N-[(5-Isoquinolyl)sulfonyl]-N-[3-(3-carboxy)phenylpropyl]-1,3-propylenediamine hydrochloride] | – | ≤ 20 | IC50 (Neutrophils): ≤ 40 µM
– | COC(=O)c1ccc(CCCN(CCCN)S(=O)(=O)c2cccc3cnccc23)cc1 [Example 130, N-[(5-Isoquinolyl)sulfonyl]-N-[3-(4-methoxycarbonyl)phenylpropyl]-1,3-propylenediamine hydrochloride] | – | ≤ 20 | –
– | COC(=O)c1cccc(CCCN(CCCN)S(=O)(=O)c2cccc3cnccc23)c1 [Example 131, N-[(5-Isoquinolyl)sulfonyl]-N-[3-(3-methoxycarbonyl)phenylpropyl]-1,3-propylenediamine hydrochloride] | – | ≤ 20 | IC50 (Neutrophils): ≤ 40 µM
≤ 40 | Nc1cncc2cccc(O[C@H]3CC[C@H](N)CC3)c12 [Example 137, Trans-4-[(4-amino-5-isoquinolyl)oxy]cyclohexylamine hydrochloride] | ≤ 40 | ≤ 20 | –
– | CCc1cncc2cccc(O[C@H]3CC[C@H](N)CC3)c12 [Example 138, Trans-4-[(4-ethyl-5-isoquinolyl)oxy]cyclohexylamine hydrochloride] | ≤ 40 | ≤ 20 | –
– | Nc1nccc2c(NC3CCNCC3)cccc12 [Example 142, 4-(1-Amino-5-isoquinolyl)aminopiperidine hydrochloride] | ≤ 40 | ≤ 20 | –
– | N#Cc1cncc2cccc(O[C@H]3CC[C@H](NCCO)CC3)c12 [Example 156, Trans-1-[(4-cyano-5-isoquinolyl)oxy]-4-[(2-hydroxyethyl)amino]cyclohexane hydrochloride] | ≤ 40 | ≤ 20 | –
≤ 40 | Cc1cnc(O)c2cccc(N[C@H]3CC[C@H](N)CC3)c12 [Example 160, Trans-N-(1-hydroxy-4-methyl-5-isoquinolyl)-1,4-cyclohexanediamine hydrochloride] | ≤ 40 | ≤ 20 | –
– | CC1CNCCN1S(=O)(=O)c1cccc2cnccc12 (stereo not drawn) [Example H-7, 1-(5-isoquinolinesulfonyl)-2-methylpiperazine, reference compound] | – | – | inhibition at 1 µM (thoracic aorta; Rattus norvegicus, read-out: Vasoconstriction inhibitory action (relaxation ratio) (%)): 22%
